# Assay results taken from patent US10780074B2, “Compounds and uses thereof” (Sunovion Pharmaceuticals Inc., priority 2017, dated 2020).
# Where a name gives a salt, the structure may show the parent alone. Read-outs that look alike come from different tables or passages of the source.
# Test system: behaviors of compound-treated mice
# Assay: Neuropharmacological Assay (SmartCube)
# Assay type: in vivo
# Conditions: for minimal effective dose: Mus musculus, ip, 0.25 h, dose having 50% or more total activity in SmartCube, read-out: MED (minimal effective dose)
# Method in brief: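 Mice dosed i.p. 15 min before testing, with compound in N-methyl-2-pyrrolidone/PEG/propylene glycol, were video-recorded and algorithmically compared with reference-drug behavioral signatures. This gave class-match probabilities (antidepressant, anxiolytic, etc.) at the most efficacious of 3 doses. MED was defined as the dose with ≥50% total activity, usually tested across 0.3–30 mpk.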
# [1] = i.p. 15 min before behavioral test, most efficacious dose(s) of 3 doses
# [2] = SmartCube, i.p. 15 min before test, most efficacious dose(s)
SMILES,minimal effective dose (i.p.),AD: ADHD (probability that activity matches class) [1],AG: analgesic (probability that activity matches class) [1],AX: anxiolytic (probability that activity matches class) [1],CE: cognitive enhancer (probability that activity matches class) [1],DP: anti-depressant (probability that activity matches class) [1],MS: mood stabilizer (probability that activity matches class) [1],PS: anti-psychotic (probability that activity matches class) [1],SD: sedative hypnotic (probability that activity matches class) [1],UN: uncharacterized CNS activity (probability that activity matches class) [1],minimal effective dose,AD: ADHD (probability that activity matches class) [2],AG: analgesic (probability that activity matches class) [2],AX: anxiolytic (probability that activity matches class) [2],CE: cognitive enhancer (probability that activity matches class) [2],DP: anti-depressant (probability that activity matches class) [2],MS: mood stabilizer (probability that activity matches class) [2],PS: anti-psychotic (probability that activity matches class) [2],SD: sedative hypnotic (probability that activity matches class) [2],UN: uncharacterized CNS activity (probability that activity matches class) [2]
"c1cc(-c2ccncc2)c2c(c1)[C@H](CNC1CC1)OCC2 (single isomer, unassigned) [Compound 180, hydrochloride salt]",3 to 10 mg/kg,+ (LOQ ≤ + <5%),+ (LOQ ≤ + <5%),++ (5% ≤ ++ <25%),+ (LOQ ≤ + <5%),++ (5% ≤ ++ <25%),+ (LOQ ≤ + <5%),+ (LOQ ≤ + <5%),+ (LOQ ≤ + <5%),++++ (50% ≤ ++++),,,,,,,,,,
"CNC[C@H]1OCCc2c1cccc2-n1ccnc1 [Compound 183, (S)-1-(5-(1H-Imidazol-1-yl)isochroman-1-yl)-N-methylmethanamine hydrochloride salt]",,,,,,,,,,,3 to 10 mg/kg,+ (LOQ ≤ + <5%),+ (LOQ ≤ + <5%),+ (LOQ ≤ + <5%),+ (LOQ ≤ + <5%),++++ (50% ≤ ++++),+ (LOQ ≤ + <5%),+ (LOQ ≤ + <5%),+ (LOQ ≤ + <5%),++ (5% ≤ ++ <25%)
"NC[C@@H]1OCCc2c(-c3ccccn3)cccc21 (single isomer, unassigned) [Compound 45, hydrochloride]",10 to 30 mg/kg,+ (LOQ ≤ + <5%),++ (5% ≤ ++ <25%),++ (5% ≤ ++ <25%),+ (LOQ ≤ + <5%),++ (5% ≤ ++ <25%),+ (LOQ ≤ + <5%),+ (LOQ ≤ + <5%),+ (LOQ ≤ + <5%),+++ (25% ≤ +++ <50%),,,,,,,,,,
"NC[C@@H]1OCCc2c1cccc2-n1ccnc1 [Compound 184, (R)-(5-(1H-Imidazol-1-yl)isochroman-1-yl)methanamine hydrochloride salt]",,,,,,,,,,,10 to 30 mg/kg,+ (LOQ ≤ + <5%),+ (LOQ ≤ + <5%),++ (5% ≤ ++ <25%),+ (LOQ ≤ + <5%),+ (LOQ ≤ + <5%),+ (LOQ ≤ + <5%),+ (LOQ ≤ + <5%),+ (LOQ ≤ + <5%),+ (LOQ ≤ + <5%)
"CNC[C@H]1OCCc2c(-c3cn[nH]c3)cccc21 [Compound 119, (S)-1-(5-(1H-pyrazol-4-yl)isochroman-1-yl)-N-methylmethanamine hydrochloride salt]",≤ 3 mg/kg,++ (5% ≤ ++ <25%),+ (LOQ ≤ + <5%),++ (5% ≤ ++ <25%),+ (LOQ ≤ + <5%),++++ (50% ≤ ++++),+ (LOQ ≤ + <5%),+ (LOQ ≤ + <5%),++ (5% ≤ ++ <25%),+ (LOQ ≤ + <5%),,,,,,,,,,
"NC[C@@H]1OCCc2ccc(-c3ccncc3)cc21 [Compound 47, (R)-(7-(pyridin-4-yl)isochroman-1-yl)methanamine hydrochloride]",3 to 10 mg/kg,+ (LOQ ≤ + <5%),+ (LOQ ≤ + <5%),++ (5% ≤ ++ <25%),+ (LOQ ≤ + <5%),++++ (50% ≤ ++++),+ (LOQ ≤ + <5%),++ (5% ≤ ++ <25%),+ (LOQ ≤ + <5%),+ (LOQ ≤ + <5%),,,,,,,,,,
"NC[C@@H]1OCCc2c(-c3cnccn3)cccc21 (single isomer, unassigned) [Compound 82, hydrochloride salt]",10 to 30 mg/kg,+ (LOQ ≤ + <5%),+ (LOQ ≤ + <5%),++ (5% ≤ ++ <25%),+ (LOQ ≤ + <5%),+ (LOQ ≤ + <5%),+ (LOQ ≤ + <5%),+ (LOQ ≤ + <5%),+ (LOQ ≤ + <5%),+ (LOQ ≤ + <5%),,,,,,,,,,
"CNCC1OCCc2c(-c3cnoc3)cccc21 (stereo not shown) [Compound 65, 1-(5-(Isoxazol-4-yl)isochroman-1-yl)-N-methylmethanamine hydrochloride salt]",3 to 10 mg/kg,++ (5% ≤ ++ <25%),+ (LOQ ≤ + <5%),+ (LOQ ≤ + <5%),++ (5% ≤ ++ <25%),++++ (50% ≤ ++++),+ (LOQ ≤ + <5%),++ (5% ≤ ++ <25%),++ (5% ≤ ++ <25%),++ (5% ≤ ++ <25%),,,,,,,,,,
"CNC[C@@H]1OCCc2c(-c3ccccn3)cccc21 (single isomer, unassigned) [Compound 43, hydrochloride salt]",10 to 30 mg/kg,+ (LOQ ≤ + <5%),+ (LOQ ≤ + <5%),++ (5% ≤ ++ <25%),+ (LOQ ≤ + <5%),++ (5% ≤ ++ <25%),+ (LOQ ≤ + <5%),+ (LOQ ≤ + <5%),+ (LOQ ≤ + <5%),+++ (25% ≤ +++ <50%),,,,,,,,,,
"NC[C@@H]1OCCCc2c(-c3ccncc3)cccc21 (single isomer, unassigned) [Compound 150]",10 to 30 mg/kg,+ (LOQ ≤ + <5%),+ (LOQ ≤ + <5%),++ (5% ≤ ++ <25%),+ (LOQ ≤ + <5%),++ (5% ≤ ++ <25%),+ (LOQ ≤ + <5%),+ (LOQ ≤ + <5%),+ (LOQ ≤ + <5%),+ (LOQ ≤ + <5%),,,,,,,,,,
"NC[C@H]1OCCc2c(-c3ncc[nH]3)cccc21 [Compound 109, (S)-(5-(1H-Imidazol-2-yl)isochroman-1-yl)methanamine hydrochloride salt]",> 30 mg/kg,+ (LOQ ≤ + <5%),+ (LOQ ≤ + <5%),++ (5% ≤ ++ <25%),+ (LOQ ≤ + <5%),++ (5% ≤ ++ <25%),+ (LOQ ≤ + <5%),+ (LOQ ≤ + <5%),+ (LOQ ≤ + <5%),+ (LOQ ≤ + <5%),,,,,,,,,,
"CNC[C@@H]1OCCc2c(-c3ccon3)cccc21 (single isomer, unassigned) [Compound 90, hydrochloride salt]",10 to 30 mg/kg,+ (LOQ ≤ + <5%),+ (LOQ ≤ + <5%),++ (5% ≤ ++ <25%),+ (LOQ ≤ + <5%),+ (LOQ ≤ + <5%),+ (LOQ ≤ + <5%),+ (LOQ ≤ + <5%),+ (LOQ ≤ + <5%),+ (LOQ ≤ + <5%),,,,,,,,,,
"NC[C@@H]1OCCc2c(-c3cncnc3)cccc21 (single isomer, unassigned) [Compound 27, hydrochloride salt]",> 30 mg/kg,+ (LOQ ≤ + <5%),+ (LOQ ≤ + <5%),++ (5% ≤ ++ <25%),+ (LOQ ≤ + <5%),++ (5% ≤ ++ <25%),+ (LOQ ≤ + <5%),++ (5% ≤ ++ <25%),+ (LOQ ≤ + <5%),+ (LOQ ≤ + <5%),,,,,,,,,,
